The subject of the assay is HDL cholesterol. As to the kind of experiment: HDL cholesterol in rabbits after injection of phospholipid/peptide complex. The format is in vivo, rabbit. Particulars: for Increase in HDL Cholesterol (%): 8 mg/kg i.v. as peptide/DPPC complexes. How it is done: Small discoidal particles consisting of phospholipid (DPPC) and peptide 146 (SEQ ID NO:146) were prepared following the cholate dialysis method. The phospholipid was dissolved in chloroform and dried under a stream of nitrogen. The peptide was dissolved in buffer (saline) at a concentration of 1-2 mg/ml. The lipid film was redissolved in buffer containing cholate (43° C.) and the peptide solution was added at a 3-1 phospholipid/peptide ratio. The mixture was incubated overnight at 43° C. and then dialyzed at 43° C. (24 hr.), room temperature (24 hr.) and 4° C. (24 hr.), with three changes of buffer (large volumes) at temperature point. The complexes were filter sterilized (0.22μ) for injection and storage at 4° C.
Male New Zealand White rabbits (2.5-3 kg) were injected intravenously with a dose of phospholipid/peptide complex (8 mg/kg bodyweight peptide 146 (SEQ ID NO:146) or 10 mg/kg bodyweight ApoA-I, expressed as peptide or protein content) in a single bolus injection not exceeding 10-15 ml. The animals were slightly sedated before the manipulations. Blood samples (collected on EDTA) were taken before and 5, 15, 30, 60, 240 and 1440 minutes after injection. The hematocrit (Hct) was determined for each sample. Samples were aliquoted and stored at −20° C. before analysis.
Plasma Lipids. The total plasma cholesterol, plasma triglycerides and plasma phospholipids were determined enzymatically using commercially available assays according to the manufacturer's protocols (Boehringer Mannheim, Mannheim, Germany and Biomerieux, 69280, Marcy-l'étoile, France).
Lipoprotein Profiles. The plasma lipoprotein profiles of the fractions obtained after the separation of the plasma into its lipoprotein fractions were determined by spinning in a sucrose density gradient. The fractions were collected and in each individual fraction the phospholipid and cholesterol content was measured enzymatically.

“And” between values parts separate entries of the source, which are not always exact repeats. Equal values may be shown once. No end group written: not given here.

As to PVLELFENLLERLLDALQKKLK [peptide 146], the “duration of the increase in cholesterol of the HDL cholesterol fractions” value (8 mg/kg as peptide/DPPC complexes, apparent at 5 min.) is “approximately 24 hr”. Further, the “Increase in HDL Cholesterol (%)” value by setting is: (5 min.) 31.3%; (15 min.) 60.4%; (60 min.) 42.9%; (240 min., 8 mg/kg) 90% and 90.2%; (1440 min.) 71.2%. For the same sequence, the “mobilization of peripheral cholesterol (in words)” value (peptide/DPPC complexes 8 mg/kg) was “induces rapid and efficient mobilization of peripheral cholesterol”.

The record behind these values is US7273848B2, “Apolipoprotein A-I agonists and their use to treat dyslipidemic disorders” (priority 1997, dated 2007).
